What all share (assay): NCI tumour cell line growth inhibition, 48 h
Experiment [1] concerns TK-10 renal.
The test system of experiment [2] is SNB-19 CNS.
Experiment [3] concerns U251 CNS.
In experiment [4] the test system is HT29 colon.
Experiment [5] deals with SK-MEL-2 melanoma.
The test system of experiment [6] is MDA-MB-231 breast.
Experiment [7] concerns K-562 leukemia.
For experiment [8], the system named is UACC-62 melanoma.
Experiment [9] relates to SN12C renal.
For experiment [10], the system named is CCRF-CEM leukemia.

Values joined by “and” are separate entries in the source; they are usually repeats but may differ in a detail not shown here. Identical values can stand only once.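 Method: 48-hour compound exposure of cells in 96-well plates, five concentrations, linear interpolation of endpoints. GI50: concentration for 50% inhibition of growth. TGI is the concentration that stops growth completely.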

Among the data in PubChem BioAssay (NCI) are TGI and GI50 values, retold here.

On to `Cc1[nH]c2ccccc2c1-c1cc(-c2cc(-c3c(C)[nH]c4ccccc34)nc(N)n2)nc(N)n1`, for which the TGI in experiment [1], in [2], in experiment [3], in experiment [4], in [5] and in experiment [6] was above 100 µM throughout. Moreover, the TGI in experiment [7], in experiment [8] and in experiment [9] was above 100 µM each time.
For the compound `O=c1c(O)cccc2cc(O)c(O)c(O)c12`, the GI50 in [1] was 55 µM; in experiment [2] it was 8.44 µM; in experiment [3] it was 6.03 µM; in experiment [4], 33200 nM; in experiment [6], 7.5 µM; in experiment [10], 7.55 µM. The GI50 in experiment [7] is 3950 nM; in experiment [8] it was 6.4 µM; in experiment [9], 57.4 µM. The TGI in [1], in [2], in experiment [3], in [4], in experiment [6] and in [10] was above 100 µM throughout. The TGI in [7], in [8] and in experiment [9] was above 100 µM each time.
Turning to `COc1ccc(-c2nc(C(=O)c3ccccc3)n(CC(=O)c3ccccc3)c2-c2ccc(OC)cc2)cc1`, the GI50 in experiment [1] is above 100 µM; in experiment [2], above 100 µM; in experiment [3], above 100 µM; in [4] it was above 100000 nM; in experiment [5], above 100000 nM; in experiment [6], above 100 µM. The GI50 in experiment [10] was above 100 µM; in [7], above 100000 nM; in [8], above 100 µM; in experiment [9], above 100 µM. For the same compound, the TGI in experiment [1], in [2], in experiment [3], in experiment [4], in experiment [5] and in [6] was above 100 µM each time. Further, the TGI in [10], in [7], in experiment [8] and in [9] was above 100 µM each time.
For the compound `COC(=O)c1c(O)c([N+](=O)[O-])cc2c1c1c(n2Cc2ccccc2)C(=O)c2ccccc2C1=O`, the GI50 in [1] is 18.7 µM; in [2], 17.1 µM; in experiment [3], 31 µM; in experiment [4], 18900 nM; in experiment [5], 27200 nM; in experiment [6], 19.9 µM. For the same compound, the GI50 was 15.8 µM in experiment [10], 19000 nM in [7], 30.9 µM in [8] and 25.5 µM in experiment [9]. For the same compound, the TGI was above 100 µM in experiment [1]; 65.3 µM in experiment [2]; above 100 µM in experiment [3]; above 100 µM in experiment [4]; above 100 µM in experiment [5]; above 100 µM in experiment [6]. The TGI in experiment [10] was above 100 µM; in experiment [7] it was 92.6 µM; in [8] it was above 100 µM; in experiment [9] it was 65.7 µM.
As for `COc1cc(Nc2ncc(F)c(Nc3ccc4c(n3)NC(=O)C(C)(C)O4)n2)cc(OC)c1OC`, the GI50 in experiment [1] is 0.677 µM; in [2], above 100 µM; in experiment [3] it was above 10 µM; in [4] it was 1320 nM and 2010 nM; in experiment [5], above 100000 nM; in experiment [6] it was 3.09 µM. For the same compound, the GI50 in experiment [10] is 6.32 µM; in [7], above 100000 nM; in [9], 0.667 µM and 2.86 µM. The TGI was above 10 µM in experiment [1]; above 100 µM in experiment [2]; above 10 µM in experiment [3]; above 100 µM in experiment [4]; above 100 µM in [5]; above 10 µM in experiment [6]. Besides, the TGI is above 10 µM in experiment [10], above 100 µM in experiment [7] and above 100 µM in experiment [9].
For `COC1=CC23CCCN2CCc2cc4c(cc2C3C1O)OCO4` (stereo not drawn), the TGI was above 100 µM in experiment [1]; 67.8 µM in experiment [2]; above 100 µM in experiment [3]; above 100 µM in experiment [4]; above 100 µM in [5]; above 100 µM in experiment [6]. For the same compound, the TGI in experiment [10], in [8] and in [9] was above 100 µM in each case.
As for `Cc1cc2cn3c4ccc(O)cc4[nH]c(=O)c3c2cc1C`, the GI50 in experiment [1] is 0.667 µM; in experiment [2] it was 0.0358 µM; in experiment [3], 0.026 µM; in experiment [5], 41.1 nM; in experiment [6] it was 0.071 µM; in experiment [10], 0.0418 µM. The GI50 in experiment [8] is 0.0411 µM. For the same compound, the TGI amounted to 2.13 µM in experiment [1]; 1.68 µM in [2]; 1.07 µM in experiment [3]; 1.97 µM in experiment [5]; 1.22 µM in experiment [6]; 1.81 µM in experiment [10]. The TGI in experiment [7] turned out to be 0.329 µM; in [8], 1.78 µM.
As to `COc1ccc(C[C@@H]2NC[C@@H](O)[C@@H]2OC(C)=O)cc1`, the TGI in experiment [1] is 0.254 µM; in [3], 0.453 µM; in experiment [5] it was 0.3 µM; in experiment [6], 0.261 µM; in experiment [7], above 100 µM. Further, the GI50 is 3.73 µM in experiment [2]; 4.35 µM in [10]; 1100 nM in experiment [7]; 3.19 µM in experiment [8]; 3.19 µM in experiment [9].
As to `O=C(Nc1ccccc1O)c1ccc(CNc2ccnc(C(F)(F)F)c2)cc1`, the GI50 was 11.3 µM in [1]; 10.4 µM in [2]; 4.73 µM in experiment [3]; 6420 nM in experiment [4]; 9.29 µM in [6]; 0.354 µM in experiment [10]. The GI50 was 2390 nM in experiment [7], 1.3 µM in experiment [8] and 4.61 µM in [9]. Further, the TGI in experiment [1] is 36 µM; in [2], 33.9 µM; in experiment [3], above 100 µM; in [4] it was above 100 µM; in [6] it was 50.6 µM; in experiment [10], 12.8 µM. For the same compound, the TGI in [7] was above 100 µM; in experiment [8], 17.6 µM; in experiment [9], above 100 µM.
Consider `Cc1cc(Nc2c3ccccc3nc3ccccc23)ccc1NS(C)(=O)=O`, for which the GI50 in experiment [1] was 3.23 µM; in experiment [2], 5.65 µM; in [3], 3.17 µM; in experiment [4], 3380 nM; in experiment [5], 3420 nM; in experiment [6] it was 4.35 µM. Also, the GI50 in experiment [10] was 3.25 µM; in [7] it was 3590 nM; in [9] it was 3.78 µM. The TGI in experiment [1] was found to be 11.7 µM; in experiment [2], 35.9 µM; in experiment [3] it was 14 µM; in [4], 12.8 µM; in experiment [5], 10.6 µM; in experiment [6] it was 19.7 µM. The TGI in experiment [10] came out at 20.3 µM; in experiment [7] it was 14.5 µM; in [9] it was 20.8 µM.
Regarding `CCCCCCCCCCCCCCCC[N+](C)(CCO)Cc1cnc[nH]1` (stereo not drawn), the GI50 is 382 nM in experiment [4], 1.48 µM in experiment [6], 1570 nM in [7] and 1.45 µM in [9]. Further, the TGI is 12.3 µM in experiment [4], 5.5 µM in experiment [6], above 100 µM in [7] and 6.31 µM in experiment [9].
For the compound `CC(C)CC(=O)Nc1n[nH]c2c1CN(C(=O)C1CCN(C)CC1)C2(C)C`, the GI50 in [1] was 2.81 µM; in [2], 1.05 µM; in experiment [3], 0.439 µM; in experiment [4] it was 790 nM; in [5], 524 nM; in [6] it was 0.894 µM. The values for the GI50 in [10], in experiment [7] and in experiment [9] were 0.95 µM, 1340 nM and 1.27 µM, respectively. Further, the TGI in experiment [1] was above 10 µM; in experiment [2], above 10 µM; in [3], above 10 µM; in experiment [4], above 10 µM; in experiment [5] it was 2.8 µM; in [6], above 10 µM. Besides, the TGI in [10], in [7] and in experiment [9] was above 10 µM throughout.
On to `OC(COc1ccc(F)cc1)Cn1cnc2c(Cl)ncnc21` (stereo not drawn), for which the GI50 in experiment [1] was 63.3 µM; in experiment [2], above 100 µM; in experiment [3] it was above 100 µM; in [4], above 100000 nM; in [5], above 100000 nM; in experiment [6], 64.7 µM. The GI50 in experiment [10] is 50.8 µM; in [8] it was 79 µM; in [9] it was above 100 µM. In addition, the TGI in experiment [1], in experiment [2], in experiment [3], in experiment [4], in experiment [5] and in experiment [6] was above 100 µM throughout. Further, the TGI in experiment [10], in [8] and in experiment [9] was above 100 µM in each case.
Consider `CCN(CC)c1ccc2c(c1)Oc1nc(N)c(C#N)c(N)c1C2Sc1ccc(OC)cc1` (stereo not drawn), for which the GI50 in experiment [1] is 2.8 µM; in [2] it was 1.8 µM; in experiment [3], 1.42 µM; in experiment [4] it was 2100 nM; in experiment [5], 1560 nM; in experiment [6], 1.6 µM. The GI50 in [10] was 1.75 µM; in [7], 2610 nM; in experiment [8], 1.72 µM. Further, the TGI in [1] was 4.33 µM; in experiment [2] it was 3.26 µM; in experiment [3], 2.81 µM; in experiment [4], 4.27 µM; in [5] it was 3.14 µM; in experiment [6], 3.13 µM. The TGI in experiment [10] came out at 5.47 µM; in experiment [7], 8.07 µM; in experiment [8], 3.34 µM.
Regarding `O=C(O)c1cc2ccccc2c(N=Nc2cc(C(F)(F)F)ccc2Cl)c1O`, the TGI was above 100 µM in experiment [1]; 21.5 µM in experiment [2]; above 100 µM in experiment [3]; above 100 µM in [4]; above 100 µM in experiment [5]; 86.7 µM in experiment [6]. Also, the TGI in experiment [10], in experiment [7] and in experiment [9] was above 100 µM in each case.
For `Nc1nc2cc3ccc(C4CC(O)C(CO)O4)cc3cc2c(=O)[nH]1` (stereo not drawn), the GI50 in experiment [2] is above 100 µM; in [3], above 100 µM; in [4] it was above 100000 nM; in experiment [5] it was 92.7 nM; in experiment [6], above 100 µM; in experiment [10], 41.4 µM. The GI50 is above 100000 nM in experiment [7], above 100 µM in experiment [8] and above 100 µM in experiment [9]. Further, the TGI in experiment [2], in experiment [3], in experiment [4], in experiment [5], in experiment [6] and in [10] was above 100 µM throughout. The TGI in experiment [7], in experiment [8] and in [9] was above 100 µM each time.
Regarding `C=C1c2[nH]c3ccccc3c2C2C(CC)C1CCN2C` (stereo not drawn), the TGI in experiment [1], in experiment [2], in experiment [3], in experiment [4], in experiment [5] and in experiment [6] was above 100 µM throughout. Moreover, the TGI in experiment [10], in experiment [8] and in experiment [9] was above 100 µM each time.
Consider `O=S(=O)(SCc1ccccc1)C(c1ccccc1)c1ccccc1`, for which the TGI in [1] is above 100 µM; in experiment [2], above 100 µM; in [3], above 100 µM; in [4], 71.4 µM; in experiment [5] it was above 100 µM; in [10], above 100 µM. Further, the TGI in [7] was above 100 µM; in experiment [8], 85.7 µM; in [9], 68.2 µM.
Turning to `CC#C/C(=N\OC[C@H]1COCCN1)c1ccc2ncnc(Nc3ccc(OCc4cccc(F)c4)c(Cl)c3)c2c1`, the GI50 was 0.0335 µM in experiment [1]; 1.3 µM in experiment [2]; 1.71 µM in experiment [3]; 1620 nM in experiment [4]; 1970 nM in experiment [5]; 1.72 µM in experiment [6]. Also, the figures for the GI50 in [10] and in experiment [8] were 1.73 µM and 1.68 µM, respectively. Also, the TGI stood at 1.48 µM in [1]; 2.69 µM in experiment [2]; 3.22 µM in [3]; 3.09 µM in experiment [4]; 3.61 µM in experiment [5]; 3.14 µM in experiment [6]. The results for the TGI in experiment [10] and in experiment [8] were 3.85 µM and 3.11 µM, respectively.
